Earlier results as cited in patent publication US10314848B2, “Use of testosterone and a 5-HT1A agonist in the treatment of sexual dysfunction” (EB IP LYBRIDOS B.V., priority 2006, dated 2019).

Time to maximum plasma concentration (in vivo)	half-life (single doses)	Time to peak plasma concentration after administration (in vivo)	SMILES
1 to 2 h	5.5 h		O=C(NCCN1CCN(c2cccc3c2OC[C@H](CO)O3)CC1)c1ccc(F)cc1 [flesinoxan]
		about 1 hour	CCCc1nc(C)c2c(=O)nc(-c3cc(S(=O)(=O)N4CCN(CC)CC4)ccc3OCC)[nH]n12.Cl [vardenafil, piperazine, 1-[[3-(1,4-dihydro-5-methyl-4-oxo-7-propylimidazo[5,1-f][1,2,4]triazin-2-yl)-4-ethoxyphenyl]sulfonyl]-4-ethyl-, monohydrochloride]
